This is an account of results in ChEMBL document CHEMBL5728000, “GCN2 inhibitors and uses thereof” (2020).

As usually defined, the Ki is the equilibrium dissociation constant of an inhibitor or competing ligand from its target.

For this assay, the target named is eIF-2-alpha kinase GCN2 (Homo sapiens, UniProt Q9P2K8). Description: Enzyme Inhibition Assay: An assay buffer containing GCN2 kinase and (RS)7 was prepared. 4.7 μL of this stock solution was placed per well of a black, low volume, 384-well microtitre plate (e.g. catalogue number 3676, Corning Inc., NY). To this was added […] of DMSO containing serial dilutions of the test compound (typical final concentrations of test compound were 0 to 8 μM). The plate was incubated for 10 minutes at 25° C. prior to the addition of 4.7 μL of ATP stock buffer to initiate the enzyme reaction. The reaction was allowed to proceed for 1 hour at 25° C., prior to the addition of 10 μL detection buffer (consisting of appropriate concentrations of ADP2 antibody and ADP Alexa633 tracer in 1× stop and detect buffer as supplied by BellBrook Labs). The reaction was left to incubate for 1 hour at 25° C., prior to measuring the fluorescence polarisation signal (mP) in each well using a PHERAstar FS reader (BMG Labtech, Germany). For orientation: Polarisation of emitted light reports the rotation of a fluorescent probe.
Sequence of eIF-2-alpha kinase GCN2 (Q9P2K8 whole entry): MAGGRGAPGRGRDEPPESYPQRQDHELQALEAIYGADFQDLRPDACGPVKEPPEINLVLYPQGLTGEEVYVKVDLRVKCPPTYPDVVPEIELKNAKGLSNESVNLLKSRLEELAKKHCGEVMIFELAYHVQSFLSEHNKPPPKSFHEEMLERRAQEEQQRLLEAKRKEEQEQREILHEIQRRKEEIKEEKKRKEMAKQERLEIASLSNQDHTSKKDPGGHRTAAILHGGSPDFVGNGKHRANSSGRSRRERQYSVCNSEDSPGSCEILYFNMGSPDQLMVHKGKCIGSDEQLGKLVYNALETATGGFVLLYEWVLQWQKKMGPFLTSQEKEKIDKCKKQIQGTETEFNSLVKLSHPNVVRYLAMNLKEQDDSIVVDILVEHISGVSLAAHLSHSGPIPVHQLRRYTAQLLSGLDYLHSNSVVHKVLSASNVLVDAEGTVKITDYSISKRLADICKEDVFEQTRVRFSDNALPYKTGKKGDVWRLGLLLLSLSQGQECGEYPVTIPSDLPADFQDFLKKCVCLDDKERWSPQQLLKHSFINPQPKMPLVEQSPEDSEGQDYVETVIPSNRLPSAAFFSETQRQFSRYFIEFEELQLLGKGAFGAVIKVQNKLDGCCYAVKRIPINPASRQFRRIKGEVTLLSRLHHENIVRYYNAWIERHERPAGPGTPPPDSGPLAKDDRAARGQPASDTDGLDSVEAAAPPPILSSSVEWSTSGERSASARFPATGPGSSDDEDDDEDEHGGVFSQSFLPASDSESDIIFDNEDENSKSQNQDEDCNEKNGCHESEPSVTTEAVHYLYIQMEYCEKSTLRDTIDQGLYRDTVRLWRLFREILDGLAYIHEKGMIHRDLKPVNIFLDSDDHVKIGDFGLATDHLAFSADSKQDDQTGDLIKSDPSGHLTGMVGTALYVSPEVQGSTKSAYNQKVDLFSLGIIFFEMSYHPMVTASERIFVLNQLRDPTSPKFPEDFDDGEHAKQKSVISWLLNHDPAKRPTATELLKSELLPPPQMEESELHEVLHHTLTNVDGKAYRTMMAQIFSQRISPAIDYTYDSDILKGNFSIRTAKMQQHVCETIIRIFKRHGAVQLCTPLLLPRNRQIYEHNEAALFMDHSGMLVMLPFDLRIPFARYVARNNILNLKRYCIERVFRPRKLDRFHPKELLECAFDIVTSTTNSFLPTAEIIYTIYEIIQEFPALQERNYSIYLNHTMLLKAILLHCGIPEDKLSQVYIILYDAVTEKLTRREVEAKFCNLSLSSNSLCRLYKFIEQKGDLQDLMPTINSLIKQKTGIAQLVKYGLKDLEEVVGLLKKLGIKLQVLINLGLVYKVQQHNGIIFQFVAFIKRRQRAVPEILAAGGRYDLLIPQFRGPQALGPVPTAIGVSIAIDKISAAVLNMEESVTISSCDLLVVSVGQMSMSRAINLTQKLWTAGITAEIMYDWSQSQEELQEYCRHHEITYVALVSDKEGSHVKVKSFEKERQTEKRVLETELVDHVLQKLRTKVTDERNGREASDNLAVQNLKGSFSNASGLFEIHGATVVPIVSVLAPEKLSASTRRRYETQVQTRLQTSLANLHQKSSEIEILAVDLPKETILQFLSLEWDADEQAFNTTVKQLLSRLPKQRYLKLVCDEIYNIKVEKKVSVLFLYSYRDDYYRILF

In the case of `Cc1[nH]ncc1[C@@H]1CN(c2nccc(-c3cnc4ccc(C(F)(F)F)cn34)n2)C[C@H](C)O1`, the Ki is under 10 nM.
`C[C@H]1C[C@@H](c2cn[nH]c2)CN(c2nccc(-c3cnc4ccc(C(F)(F)F)cn34)n2)C1` (mixture of isomers): the Ki is under 10 nM.
As for `Cc1[nH]ncc1[C@H]1CN(c2nccc(-c3cnc4ccc(C(F)(F)F)cn34)n2)C[C@@H](C)O1` (relative stereo), the figure is under 10 nM; as for `Cc1n[nH]cc1[C@H]1CN(c2ccnc(-c3cnc4ccc(C(F)(F)F)cn34)n2)C[C@@H](C)O1` (relative stereo), under 10 nM.
As for `C[C@@H]1CN(c2nccc(-c3cnc4ccc(C(F)(F)F)cn34)n2)C[C@H](c2cn[nH]c2)O1` (relative stereo), the figure is under 10 nM.
